The text below walks through data of a melting point compilation (Tetko et al.; mined from patent text by program, amines drawn as free bases though some values may be those of a salt).

For orientation: melting point means the temperature, or range, at which the solid turns liquid.

`CCOC(=O)Nc1nc(C(=O)C(=O)OC)ns1`: the melting point was 170 to 174 °C.

For `N#CC(=Cc1ccc(C=Cc2ccccc2)cc1)S(=O)(=O)c1ccccc1`, the melting point lay in the range of 179 to 183 °C. As for `O=C(O)C[C@H]1C[C@H](C(=O)O)Nc2cc(Cl)cc(Cl)c21` (relative stereo), the figure is 229 to 231 °C; as for `CCNc1c(C(=O)OCC)c(C)nc(N2CCN(C)CC2)c1[N+](=O)[O-]`, 59 to 61 °C; as for `CCCc1nnc2n1-c1ccccc1CS2`, 114 °C. `OC(c1ccccc1)c1ccccc1CNC(=S)NCCc1ccccc1` (configuration not stated) had a melting point of 117 to 119 °C.

With `Nc1nc(-c2cc(Cl)ccc2Cl)nc(N2CCC(CO)CC2)n1`, the melting point lay within 173 to 175 °C. In the case of `CCCCCOc1c(OC)ccc(C(=O)NCCc2ccc(OCc3ccccc3)cc2)c1CCO` it was 93.4 to 93.7 °C; in that of `COC(=O)c1cccnc1NC(=O)C(C)CS` (configuration not stated), 50 to 52 °C; in that of `COc1cc2c3c([nH]c2cc1O)-c1ccccc1C3=O`, over 260 °C. In the case of `COC(=O)c1c(C)c(O)cc(OC)c1Cl`, the melting point amounted to 92 °C.

The compound `C=CCCc1ccc(C(N)=O)c(O)n1` gave a melting point of 195 to 198 °C.

`COc1cc(C=CC(=O)Nc2cnc3ccccc3c2-c2ccccc2)cc(OC)c1OC(C)=O` yielded a melting point of 247 to 248 °C. `CC1=C(C(=O)N2CCCCC2)C(c2ccccc2[N+](=O)[O-])C(S(C)(=O)=O)=C(C)N1` (configuration not stated) gave a melting point of 275 to 276 °C. As for `CCOC(=O)COc1cc(C)sc1C#N`, the figure is 58 °C; as for `CC1(C)c2ccccc2C(C#N)c2ccccc21`, 91 to 92 °C. In the case of `CC(NC(=O)C1(C(F)(F)F)CC(C)(Cl)C1)c1ccc(Cl)cc1` (configuration not stated) it was 129 to 130 °C; in that of `CCOC(=O)c1c(C)cc2nc(CSC(C)=O)n(-c3ccccc3Cl)c(=O)c2c1C`, 103 to 105 °C. In turn, `O=C(NCCN1CCNC1=O)Nc1ccccc1` gave a melting point of 162 to 164 °C. For the compound `Cc1cc(C)c(C2C(=O)CC(CC3CCOC3)CC2=O)c(C)c1` (configuration not stated), the melting point was 62 to 64 °C.

In the case of `C=Cc1[nH]c(=O)c2c(ccc3nc(Nc4c(Cl)cccc4Cl)n(C)c32)c1C`, the melting point was over 300 °C. In the case of `CCCn1c(=O)[nH]c(=O)c2[nH]c(/C=C/c3cc(OC)c(OC)c(OC)c3)nc21` it was 286 to 291 °C; in that of `CCc1n[nH]c2c1nc(-c1cccnc1)c1ccccc12`, 219 to 220 °C. `Nc1c(-c2ccc(-c3ccccc3F)cc2)nc2ccc(Cl)cc2c1C(=O)O` showed a melting point of 247 to 249 °C. As for `Nc1cccnc1Nc1cccc(-c2cccnc2)c1`, the figure is 159 to 160 °C; as for `CN1C(C(=O)Nc2cccc(F)c2)=C(O)c2ccc3ccccc3c2S1(=O)=O`, 278 to 279 °C. In the case of `Cc1ccc(Oc2c(-c3ccc(S(C)(=O)=O)cc3)oc(C(F)F)cc2=O)cc1` it was 160 °C; in that of `O=C(c1cccc(CBr)c1)c1cccc(CBr)c1`, 147 to 148 °C; in that of `Cc1cc(C(=O)Nc2ccccc2O)cc(C)c1O`, 142 to 145 °C. `O=C(CCc1ccc(OCc2ccccc2)cc1)C(F)(F)F` returned a melting point of 71 to 72 °C. As for `Cc1cc2c(nc1N)C(=O)N(C(C)C1CC1)C2=O` (configuration not stated), the figure is 219 to 220 °C. Take `Cc1cc(S(=O)(=O)Nc2ccc(N)cc2)c2c(C)ccc(C(C)C)cc1-2`: the melting point is 88 to 90 °C. `CON1CCC2(CC1)C(O)=C(c1cc(C)c(C)cc1Cl)C(=O)N2C` showed a melting point of 191 to 192 °C. The compound `Cc1cc2[nH]c3ncccc3c(=O)n2n1` showed a melting point of over 300 °C. Turning to `COc1ccc(-c2nc3ccccc3nc2-c2ccc(OC)cc2)cc1`, the melting point was found to be 148 °C.

`CC(C#Cc1cccc(Oc2ccc(F)cc2)c1)N(O)C(N)=O` (configuration not stated) came in with a melting point of 137 to 138 °C.

Turning to `O=C(Cn1c(-c2ccc([N+](=O)[O-])cc2)ncc(NC(=O)OCc2ccccc2)c1=O)NC(Cc1ccccc1)C(=O)C(F)(F)F` (configuration not stated), the melting point lay in the range of 117 to 121 °C.

On to `Cc1ccc(S(=O)(=O)OCCOc2ccc(OC(F)(F)F)cc2)cc1`, for which the melting point is 35 to 36 °C. `COC(=O)c1cccc2c1OCO2`: the melting point is 55 to 57 °C.

As to `CCCCCCC/C=C/C(=O)NCCC(C)C`, the melting point was 28 to 31 °C.

Turning to `Cc1c(F)c(F)c(COC(=O)C(c2cnc(C(C)(C)C)nc2)C(C)(C)C)c(F)c1F` (racemic), the melting point is 91 °C. Compound `O=C1NC(=O)C(=Cc2ccc3c(c2)CCC(Cc2ccc(OCc4ccccc4)cc2)O3)S1` (configuration not stated) had a melting point of 245 to 250 °C. As to `Clc1nc2ccccc2c2[nH]cnc12`, the melting point was 257 to 258 °C. As for `CCOC(=O)c1cc2c(Cl)ccc3c2n1CCCC=C3`, the figure is 89 to 90 °C. Consider `COc1ccc(C(Cl)=NO)cc1`, for which the melting point was 87.5 to 89.5 °C. For `COc1ccc(CNC(=O)c2cc3c(=O)n(CCOc4ccc(F)cc4)c(=O)n(C)c3s2)cc1`, the melting point fell in the range of 170 to 171 °C. Regarding `Cc1cc(NC(=O)N2CCc3cc(N(C)C)ccc32)c2ccccc2n1`, the melting point was 252 to 253 °C. In the case of `Cn1cc(C(N)=O)c(=O)c2sc(Cl)cc21`, the melting point lay within 325 to 327 °C. As for `COCc1ccc(C)c(NC(=O)CC23CC4CC(CC(C4)C2)C3)c1`, the figure is 127 to 128 °C.

Consider `CC(=C(C#N)C(=O)Nc1ccccc1C(C)C)N(C)C`, for which the melting point fell in the range of 74 to 78 °C.

`O=C(N[C@H]1C=C[C@@H](C(=O)O)C1)c1ccccc1` returned a melting point of 150 to 151 °C. As for `COc1ccc(Nc2nccc(-c3cccs3)n2)cc1`, the figure is 158 to 160 °C. Compound `CCC(CC)c1ccc(C(F)(F)F)c2nc(Oc3c(C)cc(Cl)cc3Cl)n(C)c12` returned a melting point of 149 to 151 °C.

Take `Cc1cccc(-c2ccc(-c3nnc(-c4cccc(C(=O)O)c4)o3)cc2)c1`: the melting point lay in the range of 240 to 242 °C. The compound `CN1CCC(c2c[nH]c3cnc(-n4cncn4)cc23)CC1` yielded a melting point of 209 to 211 °C.

For `CCCCOc1ccc(NC(=O)CNc2ccccc2F)cc1`, the melting point was in the range of 92 to 94 °C.

The compound `CCOC(=O)c1cc(O)ccc1O` had a melting point of 81 to 82 °C.

Compound `O=C(O)CCCCCCCCCNS(=O)(=O)c1ccc(Cl)cc1` returned a melting point of 192 to 194 °C.

In turn, `COc1ccc(S(=O)(=O)Nc2ccccc2-c2ccc(F)cc2C(C)O)cc1` (configuration not stated) showed a melting point of 137 to 138 °C.

`C[C@H](N)C(=O)NC(C)(Cc1ccc(F)cc1)c1ccc(F)cc1` (some centres not stated) had a melting point of 134 to 135 °C. In the case of `COc1ccc2sc(CC3(O)C4CC5CC(C4)CC3C5)nc2c1` (configuration not stated), the melting point fell in the range of 140 to 142 °C. In the case of `COC1CN(C(=O)c2cc(-c3ccccc3)c(=O)n3nc(C)c4ccsc4c23)C1` it was 169 to 170 °C. Compound `CC1CCCN1c1nc(C#N)nc(Cl)c1/C(Br)=C(\Br)[Si](C)(C)C` (configuration not stated) yielded a melting point of 166 to 168 °C. In the case of `CC1C[C@@H]2NC[C@@H](NC(=O)OC(C)(C)C)[C@@H]2O1` (relative stereo) it was 69 to 72 °C; in that of `CCCN(C)S(=O)(=O)c1nnc(NC(=O)N(C)C)s1`, 152 to 153 °C; in that of `Cc1cccc(C)c1N(CCCC(=O)NCCCC(=O)O)C(=O)c1ccc(Cl)cc1`, 141 to 142 °C. Take `CC(C)(C)OC(=O)NCC(=O)Oc1cccc(-c2cn3c(n2)sc2ccccc23)c1`: the melting point worked out at 150 °C. With `O=C(O)CCCCCCCCCCCCC(=O)ON1C(=O)CCC1=O`, the melting point fell in the range of 116 to 118 °C. As for `Cc1c(C)c2c(c(C)c1N)C(c1ccc(-c3ccccc3)cc1)CO2` (configuration not stated), the figure is 149 to 150 °C; as for `C[C@@H](Nc1c(Nc2ccc(C#N)c(Cl)c2)c(=O)c1=O)C(C)(C)C`, over 300 °C; as for `CNC(=O)Oc1c(OC)c(OC)c(OC(=O)NC)c2ccccc12`, 228 to 229 °C. In turn, `O=C1CCNCCNC(=O)CCNCCN1` yielded a melting point of 198 to 199 °C.

In turn, `COCCOCOc1ccccc1N1C(C(C)(C)C)ONC1(Br)C(C)(C)C` (configuration not stated) yielded a melting point of 89 to 91 °C. The compound `CCCCCCCCc1c(C)[nH]c(C)c(C#N)c1=O` had a melting point of 205 to 206 °C. Regarding `CCn1cc(C(=O)O)c(=O)c2cc(F)c(N3CC4CC3CN4Cc3ccccc3)c(F)c21` (configuration not stated), the melting point lay within 195 to 198 °C.

Take `CCOCc1nc2c(N)nc3ccccc3c2n1CC1(O)CCC2(CC1)OCCO2`: the melting point lay within 207 to 209 °C. As for `COc1ccc2c(C(=O)c3ccc(OC4CCCC4N4CCCCC4)cc3)c(-c3ccc(OCCN4CCCC4)cc3)sc2c1` (configuration not stated), the figure is 68 to 72 °C. As for `CC(Br)C(=O)NC1=NN(c2cccc(C(F)(F)F)c2)CC1` (configuration not stated), the figure is 54 to 56 °C; as for `N#CNc1ncc(-c2ccncc2)cn1`, over 300 °C. For the compound `CN(C)C(=O)N[C@H]1CC[C@H](CCN2CCC(c3cccc4c3CCO4)CC2)CC1`, the melting point was 260 °C. As for `Cc1ccc(-c2c(Cl)nc(-c3cccs3)nc2Cl)cc1`, the figure is 120 °C. In the case of `CCOC(=O)Cc1nsc2ccc(-n3c(=O)cc(C(F)(F)F)n(C)c3=O)cc12` it was 150 to 152 °C. `CC(=O)OCCCCCCOc1ccc([N+](=O)[O-])c(C=O)c1` registered a melting point of 42 to 43 °C. In the case of `Cc1ccc(C(=O)N2CCOCC2)c(Nc2ccc3cn[nH]c3c2)n1` it was 103 to 104 °C; in that of `CCCCCCCCCCCCCCC1COC2(CC(c3ccccc3)NC(c3ccccc3)C2)O1` (configuration not stated), 63 to 70 °C. As for `Cc1cc(SCc2ccc(OCc3ccc(Cl)cc3)cc2)ccc1OCC(=O)O`, the melting point is 164 °C. In the case of `Nc1c([N+](=O)[O-])nc(Cl)c2nncn12` it was 220 °C. Regarding `CN(Cc1ccc(N)cc1)C1CCN(c2ccc(N)cc2)CC1`, the melting point came out at 123 °C.

As for `O=C(Oc1ccc(-c2ccc(O)c([N+](=O)[O-])c2)cc1)c1ccccc1`, the melting point is 163 °C. As for `CC1(C)CC(=O)Nc2c(CCN3CCN(C4=NS(=O)c5ccccc54)CC3)cc(F)cc21` (configuration not stated), the figure is 235 °C. As for `CN1CCN(C(=O)CCS)C(C(=O)O)C1` (configuration not stated), the figure is 75 to 79 °C; as for `CC(C)(C)OC(=O)N[C@@H](CCC(=O)c1ccccc1)C(=O)OC(C)(C)C`, 85 °C.
